Data on one molecule can be found in US20190374601A1, “METHODS FOR TREATING FUNGAL INFECTIONS” (priority 2017, published 2019).

Common to all, as to type: in vivo
For assay [1], the system named is T. mentagrophytes ATCC 24953. Put plainly: Hair root invasion test (mycological evaluation), T. mentagrophytes dermatophytosis guinea pig model, Example 1. To be noted: evaluated study day 10, relative to vehicle control. The procedure: (§1) A request was made to the Animal Resource Center (ARC) at Case Western Reserve University to order the required number of male albino Harlan-Sprague-Dawley Guinea-Pigs (San Diego, Calif.) with a body weight of 450-500 g. Animals were allowed to acclimate for a minimum of 5 days prior to use. Environmental controls for the animal room were set to maintain a temperature of 16 to 22° C., a relative humidity of 30-70%, and a 12:12 light-dark cycle.
(§2) T. mentagrophytes ATCC 24953 was used as the infecting fungus. This strain was selected because it can cause skin infection and results in inflammatory reaction.
(§3) T. mentagrophytes (from frozen stock) was sub-cultured on Potato Dextrose Agar plates and incubated at 30° C. for 5-7 days. The colonies were scraped from the plates using sterile normal saline (NaCl 0.85%) solution. After washing for three times with sterile saline the conidia were re-suspended in the same solution. Ten-fold dilutions of conidia suspension were prepared and counted using a hemacytometer. Working suspension of conidia was prepared at a final concentration of 1×10^7 Colony Forming Units (CFUs)/100 μL in normal saline.
(§4) Each animal was anesthetized with a cocktail of xylazine and ketamine: 0.2 mL intramuscularly. Using an electric shaver, hair was clipped on left side of the guinea pig back. A closer shave was done with a disposable razor. Using a stencil, a square of 2.5 cm×2.5 cm was marked. The marked skin area was abraded with sterile fine grit sandpaper. A cell suspension containing 1×10^7 conidia in 100 μL was applied and rubbed thoroughly on the abraded skin.
(§5) Beginning two hours post inoculation, animals were treated subcutaneously (SQ) for CD101 and orally (PO) terbinafine once daily for a period of nine days, or once a week on days 1 and 8.
(§6) Study Day 1: Infected the animals with T. mentagrophytes and begin treatments.
(§7) Study Day 9 (treatment day 9): End treatments.
(§8) Study Day 10: Clinical evaluation of the four quadrants in the marked area was done. Hair samples were obtained from each quadrant (10 per quadrant). Hairs were planted in Potato Dextrose Agar, and incubated for 48 h for mycological evaluation. Procedures for clinical and mycological evaluations are described below.
(§9) CD101 was administered SQ in 0.3 mL, while the terbinafine was given orally in 0.3 mL. Vehicle treated group was also included.
Hair samples were removed with a sterile forceps from four quadrants. Ten hair samples from each quadrant were inoculated onto the corresponding quadrant on the Potato Dextrose agar plate and incubated at 30° C. for 2 days. The fungal growth at the hair root was examined under a stereomicroscope. The effectiveness of a compound in reducing the number of mycologically positive hair sample per treated group is expressed as percentage relative to the vehicle control group of animals using the following formula:
where, T=Positive hair in the test group, K=Positive hair in the Untreated control.

Assay [2] deals with T. mentagrophytes. Nature of the assay: Hair root invasion test (mycological evaluation), T. mentagrophytes dermatophytosis guinea pig model, different doses once weekly, Example 2. To be noted: 10 mg/kg PO days 1 and 8, evaluated study day 12, relative to vehicle control. On the procedure: (§10) Procedures for animal care and use, preparation of standard inoculum, and infection of the animals were carried out following the same steps as described in Example 1.
(§11) Infected guinea pigs were randomized into the following (1)-(5) groups (10 per group) (see Table 4): (1) a vehicle control (water+mannitol); (2) terbinafine 10 mg/kg PO days 1 and 8, as a positive control; (3) CD101 10 mg/kg SQ days 1 and 8; (4) CD101 20 mg/kg SQ days 1 and 8; and (5) CD101 40 mg/kg SQ days 1 and 8.
(§12) Animals were treated with CD101 SQ or PO (for terbinafine) once a week on days 1 and 8.
(§13) Study Day 1: Infect the animals with T. mentagrophytes and begin treatments.
(§14) Study Day 8: Last treatment.
(§15) Study Day 12: Clinical evaluation of the four quadrants in the marked area is done. Hair samples were obtained from each quadrant. Hairs (10 per quadrant) were planted in Potato Dextrose Agar, and incubated for 48 h for mycological evaluation. Procedures for clinical and mycological evaluations are described below.
(§16) The compounds was administered SQ or PO (0.3 mL/kg […]).
Hair samples were removed with sterile forceps from four quadrants. Ten hair samples from each quadrant were inoculated onto the corresponding quadrant on the Potato Dextrose agar plate and incubated at 30° C. for 2 days. The fungal growth at the hair root was examined under a stereomicroscope. The effectiveness of a compound in reducing the number of mycologically positive hair sample per treated group was expressed as percentage relative to the untreated control group of animals using the following formula:
where T=Positive hair in the test group, K=Positive hair in the Untreated control.

Assay [3] relates to T. mentagrophytes ATCC 24953. Put plainly: Clinical evaluation of infected skin, T. mentagrophytes dermatophytosis guinea pig model, Example 1. To be noted: evaluated study day 10, relative to vehicle control. On the procedure:
as §1, §2, §3, §4, §5, §6, §7, §8, §9
(§17) Clinical assessment of local changes of the infected skin area was scored as follows:
(§18) 1=Few slightly erythematous places on the skin
(§19) 2=Well-defined redness, swelling with bristling hairs.
(§20) 3=Large areas or marked redness incrustation, scaling, bald patches, ulcerated in places.
(§21) 4=Partial damage to the integument and loss of hair
(§22) 5=Extensive damage to the integument and complete loss of hair at the site of infection.
Any other local skin reactions were noted. The assessment of clinical evaluation in the change of scores per treatment group is expressed as percentage relative to the vehicle control group of animals using the following formula:
where, T=Scores in the test group. K=Scores in the untreated control

For assay [4], the system named is T. mentagrophytes. Nature of the assay: Clinical evaluation of infected skin, T. mentagrophytes dermatophytosis guinea pig model, different doses once weekly, Example 2. The following applies: 10 mg/kg PO days 1 and 8, evaluated study day 12, relative to vehicle control. The procedure:
as §10, §11, §12, §13, §14, §15, §16, §17, §18, §19, §20, §21, §22
Any other local skin reactions were noted. The assessment of clinical evaluation in the change of scores per treatment group was expressed as percentage relative to the untreated control group of animals using the following formula:
where T=Scores in the test group. K=Scores in the untreated control

Setting [5] is: 10 mg/kg PO daily for nine days.
[6] abbreviates: 10 mg/kg PO daily for nine days, listed as terbinafine.
The mark [7] stands for this setting: 10 mg/kg PO once a week (days 1 and 8).
Setting [8] is: 10 mg/kg PO once a week (days 1 and 8), listed as terbinafine.

Marks after values point to notes of the source that are not given here.

For the molecule `CN(C/C=C/C#CC(C)(C)C)Cc1cccc2ccccc12` [Terbinafine, terbinafine, reference compound], the “Percent Efficacy Mycological” value is 91.6* % in assay [1] (setting [5]); 91.6% in assay [1] (setting [6]); 83.1* % in assay [1] (setting [7]); 83.1% in assay [1] (setting [8]); 54.2* % in the assay with T. mentagrophytes [2]; 54.2% in the assay on T. mentagrophytes [2] (listed as terbinafine). For the same molecule, the “Percent Efficacy Clinical” value in assay [3] (setting [5]) is 78.7* %; in assay [3] (setting [6]), 78.7%; in assay [3] (setting [7]), 60.6* %; in assay [3] (setting [8]), 60.6%; in the assay with T. mentagrophytes [4], 76.8* %; in the assay with T. mentagrophytes [4] (listed as terbinafine), 76.8%.
